According to patent US10815239B2, “Compounds useful as inhibitors of ATR kinase” (Vertex Pharmaceuticals Incorporated, priority 2013, dated 2020):

Biological target: T1, full-length ATR (Homo sapiens, UniProt Q13535)
T1 construct: Assays are carried out at 25° C. in the presence of 5 nM full-length ATR
Assay: ATR Inhibition Assay (radioactive-phosphate incorporation)
Assay type: biochemical
Conditions: 5 nM full-length ATR, 10 μM ATP, 800 μM target peptide, 25° C.; read-out: Ki (Ki(app)) for inhibition of ATR
Protocol: Compounds can be screened for their ability to inhibit ATR kinase using a radioactive-phosphate incorporation assay. Assays are carried out in a mixture of 50 mM Tris/HCl (pH 7.5), 10 mM MgCl2 and 1 mM DTT. Final substrate concentrations are 10 μM [γ-33P]ATP (3 mCi 33P ATP/mmol ATP, Perkin Elmer) and 800 μM target peptide (ASELPASQPQPFSAKKK).
Assays are carried out at 25° C. in the presence of 5 nM full-length ATR. An assay stock buffer solution is prepared containing all of the reagents listed above, with the exception of ATP and the test compound of interest. 13.5 μL of the stock solution is placed in a 96 well plate followed by addition of 2 μL of DMSO stock containing serial dilutions of the test compound (typically starting from a final concentration of 15 μM with 3-fold serial dilutions) in duplicate (final DMSO concentration 7%). The plate is pre-incubated for 10 minutes at 25° C. and the reaction initiated by addition of 15 μL [γ-33P]ATP (final concentration 10 μM).
The reaction is stopped after 24 hours by the addition of 30 μL 0.1M phosphoric acid containing 2 mM ATP. […]
After removing mean background values for all of the data points, Ki(app) data are calculated from non-linear regression analysis of the initial rate data using the Prism software package (GraphPad Prism version 3.0cx for Macintosh, GraphPad Software, San Diego Calif., USA).

T1 sequence (Q13535 whole entry): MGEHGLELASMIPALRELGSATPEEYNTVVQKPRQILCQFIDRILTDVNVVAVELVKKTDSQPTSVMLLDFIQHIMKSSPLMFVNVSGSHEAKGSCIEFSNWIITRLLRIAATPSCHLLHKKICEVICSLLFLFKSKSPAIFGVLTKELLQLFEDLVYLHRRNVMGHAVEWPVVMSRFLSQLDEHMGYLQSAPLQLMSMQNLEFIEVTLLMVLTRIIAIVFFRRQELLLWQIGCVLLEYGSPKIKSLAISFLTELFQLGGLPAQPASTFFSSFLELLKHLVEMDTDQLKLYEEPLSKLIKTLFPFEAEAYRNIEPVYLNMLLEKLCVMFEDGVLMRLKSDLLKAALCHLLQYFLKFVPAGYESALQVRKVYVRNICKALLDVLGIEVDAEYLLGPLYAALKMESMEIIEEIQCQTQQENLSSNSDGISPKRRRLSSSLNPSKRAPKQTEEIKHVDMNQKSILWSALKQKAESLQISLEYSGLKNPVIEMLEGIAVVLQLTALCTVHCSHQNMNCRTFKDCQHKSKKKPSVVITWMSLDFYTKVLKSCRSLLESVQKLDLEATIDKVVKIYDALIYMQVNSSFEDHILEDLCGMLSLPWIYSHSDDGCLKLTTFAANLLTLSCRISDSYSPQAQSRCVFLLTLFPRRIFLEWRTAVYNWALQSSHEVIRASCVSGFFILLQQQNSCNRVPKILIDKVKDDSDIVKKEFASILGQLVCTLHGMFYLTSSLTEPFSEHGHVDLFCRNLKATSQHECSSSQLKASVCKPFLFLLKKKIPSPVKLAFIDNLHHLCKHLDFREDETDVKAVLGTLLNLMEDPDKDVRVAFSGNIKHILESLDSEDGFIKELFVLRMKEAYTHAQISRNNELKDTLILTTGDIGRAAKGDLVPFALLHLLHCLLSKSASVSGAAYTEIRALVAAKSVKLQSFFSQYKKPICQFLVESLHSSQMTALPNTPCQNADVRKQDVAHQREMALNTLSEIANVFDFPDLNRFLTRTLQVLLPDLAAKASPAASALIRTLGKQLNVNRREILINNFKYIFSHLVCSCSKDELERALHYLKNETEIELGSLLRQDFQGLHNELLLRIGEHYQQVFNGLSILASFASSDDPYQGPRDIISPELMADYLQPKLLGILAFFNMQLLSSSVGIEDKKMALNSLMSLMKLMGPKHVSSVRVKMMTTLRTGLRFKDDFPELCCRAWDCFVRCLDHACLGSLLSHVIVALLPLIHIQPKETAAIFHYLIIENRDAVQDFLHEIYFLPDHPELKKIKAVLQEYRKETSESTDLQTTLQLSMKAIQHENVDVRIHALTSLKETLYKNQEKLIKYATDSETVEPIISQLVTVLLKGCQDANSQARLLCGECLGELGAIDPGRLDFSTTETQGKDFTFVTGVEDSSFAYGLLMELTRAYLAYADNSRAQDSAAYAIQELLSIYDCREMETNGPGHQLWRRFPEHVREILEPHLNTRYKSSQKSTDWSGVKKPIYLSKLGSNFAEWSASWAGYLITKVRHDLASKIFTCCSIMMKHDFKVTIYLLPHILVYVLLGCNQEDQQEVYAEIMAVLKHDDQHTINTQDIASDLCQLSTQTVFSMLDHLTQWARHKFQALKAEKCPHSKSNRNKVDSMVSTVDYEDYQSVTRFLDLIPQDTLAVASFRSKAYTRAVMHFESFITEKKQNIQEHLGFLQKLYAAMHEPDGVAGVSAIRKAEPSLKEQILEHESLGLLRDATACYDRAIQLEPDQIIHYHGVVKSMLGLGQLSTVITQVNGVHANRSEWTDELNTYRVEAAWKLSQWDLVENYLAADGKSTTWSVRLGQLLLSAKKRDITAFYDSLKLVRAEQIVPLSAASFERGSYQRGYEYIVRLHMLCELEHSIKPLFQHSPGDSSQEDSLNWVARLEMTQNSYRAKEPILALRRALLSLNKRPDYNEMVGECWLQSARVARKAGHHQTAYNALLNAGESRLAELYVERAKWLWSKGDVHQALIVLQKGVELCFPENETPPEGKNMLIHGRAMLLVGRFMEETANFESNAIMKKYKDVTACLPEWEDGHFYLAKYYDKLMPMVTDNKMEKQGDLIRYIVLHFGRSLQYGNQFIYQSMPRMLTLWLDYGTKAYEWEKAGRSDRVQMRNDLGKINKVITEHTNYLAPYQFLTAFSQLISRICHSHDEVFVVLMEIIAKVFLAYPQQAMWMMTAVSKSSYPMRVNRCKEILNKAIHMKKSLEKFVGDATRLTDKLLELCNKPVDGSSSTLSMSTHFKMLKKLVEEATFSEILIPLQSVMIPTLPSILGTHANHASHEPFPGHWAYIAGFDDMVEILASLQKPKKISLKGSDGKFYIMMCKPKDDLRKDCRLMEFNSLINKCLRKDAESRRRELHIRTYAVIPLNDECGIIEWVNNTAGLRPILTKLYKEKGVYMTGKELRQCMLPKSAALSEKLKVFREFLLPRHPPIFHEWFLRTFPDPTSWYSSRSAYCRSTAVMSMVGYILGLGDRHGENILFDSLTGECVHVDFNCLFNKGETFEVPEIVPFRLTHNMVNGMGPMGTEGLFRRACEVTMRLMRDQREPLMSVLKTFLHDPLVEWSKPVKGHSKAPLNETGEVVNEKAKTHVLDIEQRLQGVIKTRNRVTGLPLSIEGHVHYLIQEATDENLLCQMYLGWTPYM

SMILES	Ki
[2H]C1([2H])N(C(=O)C2CCN(c3c(F)cncc3NC(=O)c3c(N)nn4cc(F)cnc34)CC2)C([2H])([2H])C([2H])([2H])N(C2COC2)C1([2H])[2H] [Compound I-3, 2-amino-6-fluoro-N-(5-fluoro-4-(4-(2,2,3,3,5,5,6,6-octadeutero-4-(oxetan-3-yl)piperazine-1-carbonyl)piperidin-1-yl)-3-pyridyl)pyrazolo[1,5-a]pyrimidine-3-carboxamide]	< 1000 nM
Nc1nn2cc(F)cnc2c1C(=O)Nc1cncc(F)c1N1CCC(C(=O)N2CCN(C3COC3)CC2)CC1 [Compound I-1, 2-amino-6-fluoro-N-[5-fluoro-4-[4-[4-(oxetan-3-yl)piperazine-1-carbonyl]-1-piperidyl]-3-pyridyl]pyrazolo[1,5-a]pyrimidine-3-carboxamide]	< 1000 nM
